We go through 27 molecules from patent publication US7781591B2, “Substituted 3-cyanopyridines as protein kinase inhibitors” (Wyeth LLC, priority 2006, dated 2010).

The assay addresses T1, human PKCθ full length enzyme (Homo sapiens, UniProt Q04759).
T1 construct: human PKCθ full length enzyme (Panvera Cat# P2996); purchased Panvera P2996
The experiment in a line: PKCθ IMAP assay (fluorescence polarization). The format is biochemical. Particulars: human PKCθ full length enzyme, IMAP; average value; read-out: IC50 PKCθ IMAP. For orientation: In fluorescence polarisation assays a small probe gives low polarisation when free and higher when bound to something large.

SMILES strings stand for the structures.

As usually defined, the IC50 is the concentration that inhibits the measured activity by half.

T1 sequence (Q04759 whole entry): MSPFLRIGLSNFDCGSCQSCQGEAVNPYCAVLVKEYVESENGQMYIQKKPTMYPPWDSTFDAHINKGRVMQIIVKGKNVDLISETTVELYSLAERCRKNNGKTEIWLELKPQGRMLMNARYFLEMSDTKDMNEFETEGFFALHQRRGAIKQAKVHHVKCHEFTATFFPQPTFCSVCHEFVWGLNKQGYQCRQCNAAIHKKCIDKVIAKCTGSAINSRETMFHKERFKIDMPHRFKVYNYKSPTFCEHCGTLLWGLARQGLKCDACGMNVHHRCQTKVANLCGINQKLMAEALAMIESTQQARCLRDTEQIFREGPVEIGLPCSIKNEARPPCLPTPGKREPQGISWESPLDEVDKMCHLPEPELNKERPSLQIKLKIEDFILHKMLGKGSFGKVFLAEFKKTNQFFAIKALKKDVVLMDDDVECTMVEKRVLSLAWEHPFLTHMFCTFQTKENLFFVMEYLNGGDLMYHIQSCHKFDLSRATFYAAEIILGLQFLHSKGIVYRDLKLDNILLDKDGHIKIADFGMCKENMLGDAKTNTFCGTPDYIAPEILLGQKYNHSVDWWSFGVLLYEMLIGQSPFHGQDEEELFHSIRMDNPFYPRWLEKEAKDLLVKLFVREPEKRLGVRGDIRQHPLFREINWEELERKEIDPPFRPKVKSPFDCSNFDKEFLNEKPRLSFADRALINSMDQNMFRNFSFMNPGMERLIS

As for `Cc1c(Nc2c(C#N)cncc2-c2ccc(CN(C)C)cc2)ccc2[nH]ccc12` [Compound 452, 5-{4-[(dimethylamino)methyl]phenyl}-4-[(4-methyl-1H-indol-5-yl)amino]nicotinonitrile], the IC50 was 8 nM.
`Cc1c(Nc2c(C#N)cncc2-c2ccnc(CN3CCOCC3)c2)ccc2[nH]ccc12` [Compound 453, 4-[(4-methyl-1H-indol-5-yl)amino]-2′-(morpholin-4-ylmethyl)-3,4′-bipyridine-5-carbonitrile]: the IC50 came to 60 nM.
Next, `Cc1c(Nc2c(C#N)cncc2-c2cccc(CN3CCN(C)CC3)c2)ccc2[nH]ccc12` [Compound 454, 4-[(4-methyl-1H-indol-5-yl)amino]-5-{3-[(4-methylpiperazin-1-yl)methyl]phenyl}nicotinonitrile]: 3 nM; `Cc1c(Nc2c(C#N)cncc2-c2cccc(CN3CCCC3)c2)ccc2[nH]ccc12` [Compound 455, 4-[(4-methyl-1H-indol-5-yl)amino]-5-[3-(pyrrolidin-1-ylmethyl)phenyl]nicotinonitrile]: 7 nM.
`Cc1c(Nc2c(C#N)cncc2-c2cccc(CN3CCOCC3)c2)ccc2[nH]ccc12` [Compound 456, 4-[(4-methyl-1H-indol-5-yl)amino]-5-[3-(morpholin-4-ylmethyl)phenyl]nicotinonitrile]: the IC50 is 23 nM.
Next, `Cc1c(Nc2c(C#N)cncc2-c2cccc(CN(C)C)c2)ccc2[nH]ccc12` [Compound 457, 5-{3-[(dimethylamino)methyl]phenyl}-4-[(4-methyl-1H-indol-5-yl)amino]nicotinonitrile]: 7 nM; `N#Cc1cncc(-c2ccc(OC[C@H](N)Cc3ccccc3)cc2)c1Nc1cccc2[nH]ccc12` [Compound 458, 5-(4-{[(2R)-2-amino-3-phenylpropyl]oxy}phenyl)-4-(1H-indol-4-ylamino)nicotinonitrile]: 14 nM.
Next, `Cc1c(Nc2c(C#N)cncc2-c2ccc(CN3CCN(C)CC3)cc2F)ccc2[nH]ccc12` [Compound 459, 5-{2-fluoro-4-[(4-methylpiperazin-1-yl)methyl]phenyl}-4-[(4-methyl-1H-indol-5-yl)amino]nicotinonitrile]: 6 nM; `Cc1c(Nc2c(C#N)cncc2-c2cc3cc(CN4CCCCC4)ccc3o2)ccc2[nH]ccc12` [Compound 461, 4-[(4-methyl-1H-indol-5-yl)amino]-5-[5-(piperidin-1-ylmethyl)-1-benzofuran-2-yl]nicotinonitrile]: 1 nM.
Next, `Cc1c(Nc2c(C#N)cncc2-c2cc3cc(CN4CCN(C)CC4)ccc3o2)ccc2[nH]ccc12` [Compound 462, 4-[(4-methyl-1H-indol-5-yl)amino]-5-{5-[(4-methylpiperazin-1-yl)methyl]-1-benzofuran-2-yl}nicotinonitrile]: 0.2 nM; `Cc1c(Nc2c(C#N)cncc2-c2ccc(CN3CCN(C)CC3)s2)ccc2[nH]ccc12` [Compound 464, 4-[(4-methyl-1H-indol-5-yl)amino]-5-{5-[(4-methylpiperazin-1-yl)methyl]-2-thienyl}nicotinonitrile]: 6 nM; `Cc1c(Nc2c(C#N)cncc2-c2cc3cc(C=O)ccc3o2)ccc2[nH]ccc12` [Compound 465, 5-(5-formyl-1-benzofuran-2-yl)-4-[(4-methyl-1H-indol-5-yl)amino]nicotinonitrile]: 1 nM.
As to `Cc1c(Nc2c(C#N)cncc2-c2oc3ccccc3c2C)ccc2[nH]ccc12` [Compound 466, 5-(3-methyl-1-benzofuran-2-yl)-4-[(4-methyl-1H-indol-5-yl)amino]nicotinonitrile], the IC50 stood at 17 nM.
As for `Cc1c(Nc2c(C#N)cncc2-c2ccncc2)ccc2[nH]ccc12` [Compound 467, 4-[(4-methyl-1H-indol-5-yl)amino]-3,4′-bipyridine-5-carbonitrile], the IC50 came to 36 nM.
On to `Cc1c(Nc2c(C#N)cncc2-c2ccc(CN3CCN(C)CC3)o2)ccc2[nH]ccc12` [Compound 468, 4-[(4-methyl-1H-indol-5-yl)amino]-5-{5-[(4-methylpiperazin-1-yl)methyl]-2-furyl}nicotinonitrile], for which the IC50 turned out to be 4 nM.
Regarding `Cc1c(Nc2c(C#N)cncc2-c2ccnc(Cl)c2)ccc2[nH]ccc12` [Compound 469, 2′-chloro-4-[(4-methyl-1H-indol-5-yl)amino]-3,4′-bipyridine-5-carbonitrile], the IC50 came out at 31 nM.
Next, `Cc1c(Nc2c(C#N)cncc2-c2ccc(OCCN3CCN(C)CC3)cc2Cl)ccc2[nH]ccc12` [Compound 470, 5-{2-chloro-4-[2-(4-methylpiperazin-1-yl)ethoxy]phenyl}-4-[(4-methyl-1H-indol-5-yl)amino]nicotinonitrile]: 107 nM; `Cc1c(Nc2c(C#N)cncc2-c2cccnc2Cl)ccc2[nH]ccc12` [Compound 471, 2′-chloro-4-[(4-methyl-1H-indol-5-yl)amino]-3,3′-bipyridine-5-carbonitrile]: 156 nM; `Cc1c(Nc2c(C#N)cncc2-c2ccc(OCCCN3CCN(C)CC3)cc2)ccc2[nH]ccc12` [Compound 472, 4-[(4-methyl-1H-indol-5-yl)amino]-5-{4-[3-(4-methylpiperazin-1-yl)propoxy]phenyl}nicotinonitrile]: 19 nM.
Regarding `Cc1c(Nc2c(C#N)cncc2-c2ccc(OCCCN3CCOCC3)cc2)ccc2[nH]ccc12` [Compound 473, 4-[(4-methyl-1H-indol-5-yl)amino]-5-[4-(3-morpholin-4-ylpropoxy)phenyl]nicotinonitrile], the IC50 is 24 nM.
`Cc1c(Nc2c(C#N)cncc2-c2ccc(OCCCN3CCCCC3)cc2)ccc2[nH]ccc12` [Compound 474, 4-[(4-methyl-1H-indol-5-yl)amino]-5-[4-(3-piperidin-1-ylpropoxy)phenyl]nicotinonitrile]: the IC50 came out at 13 nM.
Turning to `Cc1c(Nc2c(C#N)cncc2-c2ccc(OCCCN(C)C)cc2)ccc2[nH]ccc12` [Compound 475, 5-{4-[3-(dimethylamino)propoxy]phenyl}-4-[(4-methyl-1H-indol-5-yl)amino]nicotinonitrile], the IC50 amounted to 9 nM.
Next, `COCCOc1ccc(-c2cncc(C#N)c2Nc2ccc3[nH]ccc3c2C)cc1OCCOC` [Compound 477, 5-[3,4-bis(2-methoxyethoxy)phenyl]-4-[(4-methyl-1H-indol-5-yl)amino]nicotinonitrile]: 72 nM; `COCCOc1ccc(-c2cncc(C#N)c2Nc2ccc3[nH]ccc3c2C)cc1OC` [Compound 478, 5-[3-methoxy-4-(2-methoxyethoxy)phenyl]-4-[(4-methyl-1H-indol-5-yl)amino]nicotinonitrile]: 11 nM.
Consider `Cc1c(Nc2c(C#N)cncc2-c2cc3cc(CO)ccc3o2)ccc2[nH]ccc12` [Compound 481, 5-[5-(hydroxymethyl)-1-benzofuran-2-yl]-4-[(4-methyl-1H-indol-5-yl)amino]nicotinonitrile], for which the 50% inhibitory concentration (IC50) came to 0.21 nM.
As to `COCCOc1ccc(-c2cncc(C#N)c2Nc2ccc3[nH]ccc3c2C)cc1` [Compound 482, 5-[4-(2-methoxyethoxy)phenyl]-4-[(4-methyl-1H-indol-5-yl)amino]nicotinonitrile], the IC50 came out at 11 nM.
Next, `COCCOc1cccc(-c2cncc(C#N)c2Nc2ccc3[nH]ccc3c2C)c1` [Compound 483, 5-[3-(2-methoxyethoxy)phenyl]-4-[(4-methyl-1H-indol-5-yl)amino]nicotinonitrile]: 36 nM.
